Values quoted from earlier work, collected in patent US11071785B2, “Liquid formulation of long-lasting protein conjugate comprising the oxyntomodulin and an immunoglobulin Fc region” (HANMI PHARM, CO., LTD, priority 2012, dated 2021).

What was measured:
[1] = in vivo
[2] = when administered for 1 year

Row | Compound | side effects reported [1] | weight reduction effect [2]
1 | CC(C)CC(N(C)C)C1(c2ccc(Cl)cc2)CCC1 (stereo not shown) [Sibutramine] | cardiovascular side effects | –
2 | CCCCCCCCCCC[C@@H](C[C@@H]1OC(=O)[C@H]1CCCCCC)OC(=O)[C@H](CC(C)C)NC=O [Orlistat] | – | about 4 kg
3 | Contrave | cardiovascular side effects | –
4 | Cc1c(C(=O)NN2CCCCC2)nn(-c2ccc(Cl)cc2Cl)c1-c1ccc(Cl)cc1 [Rimonabant] | disorders of the central nervous system | –
